In the supplement of paper PMC10307832:

Legend:
Assay in all cases: relative viability (nuclei count vs DMSO), 5 days (fraction); higher = more cells survive
Halofuginone + AZD7762 = compound: O=C(C[C@H]1NCCC[C@@H]1O)Cn1cnc2cc(Br)c(Cl)cc2c1=O (racemic) [Halofuginone] + NC(=O)Nc1cc(-c2cccc(F)c2)sc1C(=O)N[C@H]1CCCNC1 [AZD7762] (partner 0.2 µM)
Procedure, shortened: (§1)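 Relative viability divides the nuclei count in treated wells by that in vehicle wells. Lung cancer cell lines were seeded in 1536-well plates, dosed by pin tool the next day, and fixed and stained after 5 days in one step with final 0.05% Triton X-100, 1% formaldehyde and 1 ug/ml Hoechst. Dosing was a single drug or a fixed anchor-drug dose plus five library-drug doses (not always all listed) in √10 steps, and values are medians of duplicate plates imaged at 4×.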

Halofuginone + Lapatinib = compound: O=C(C[C@H]1NCCC[C@@H]1O)Cn1cnc2cc(Br)c(Cl)cc2c1=O (racemic) [Halofuginone] + CS(=O)(=O)CCNCc1ccc(-c2ccc3ncnc(Nc4ccc(OCc5cccc(F)c5)c(Cl)c4)c3c2)o1 [Lapatinib] (partner 2 µM)
Procedure, shortened: as §1

Halofuginone + Foretinib = compound: O=C(C[C@H]1NCCC[C@@H]1O)Cn1cnc2cc(Br)c(Cl)cc2c1=O (racemic) [Halofuginone] + COc1cc2c(Oc3ccc(NC(=O)C4(C(=O)Nc5ccc(F)cc5)CC4)cc3F)ccnc2cc1OCCCN1CCOCC1 [Foretinib] (partner 0.25 µM)
Procedure, shortened: as §1

[1] = compound: O=C(C[C@H]1NCCC[C@@H]1O)Cn1cnc2cc(Br)c(Cl)cc2c1=O (racemic) [Halofuginone] + O=C(CCCCCCC(=O)Nc1ccccc1)NO [Vorinostat] (partner 1 µM)
Procedure, shortened: as §1

Row | Cell Line | relative viability (Halofuginone + AZD7762; first compound 0.001 µM) | relative viability (Halofuginone + AZD7762; first compound 0.003162 µM) | relative viability (Halofuginone + AZD7762; first compound 0.01 µM) | relative viability (Halofuginone + AZD7762; first compound 0.03162 µM) | relative viability (Halofuginone + AZD7762; first compound 0.1 µM) | relative viability (Halofuginone + Lapatinib; first compound 0.001 µM) | relative viability (Halofuginone + Lapatinib; first compound 0.003162 µM) | relative viability (Halofuginone + Lapatinib; first compound 0.01 µM) | relative viability (Halofuginone + Lapatinib; first compound 0.03162 µM) | relative viability (Halofuginone + Lapatinib; first compound 0.1 µM) | relative viability (Halofuginone + Foretinib; first compound 0.001 µM) | relative viability (Halofuginone + Foretinib; first compound 0.003162 µM) | relative viability (Halofuginone + Foretinib; first compound 0.01 µM) | relative viability (Halofuginone + Foretinib; first compound 0.03162 µM) | relative viability (Halofuginone + Foretinib; first compound 0.1 µM) | relative viability ([1]; first compound 0.001 µM) | relative viability ([1]; first compound 0.003162 µM) | relative viability ([1]; first compound 0.01 µM) | relative viability ([1]; first compound 0.03162 µM) | relative viability ([1]; first compound 0.1 µM)
1 | NCI-H1355 | 0.801 | 0.81 | 0.688 | 0.73 | 0.616 | 1.03 | 1.03 | 0.972 | 0.984 | 0.891 | 1.02 | 0.95 | 0.88 | 0.983 | 0.884 | 0.688 | 0.648 | 0.596 | 0.663 | 0.561
2 | NCI-H1395 | 0.385 | 0.39 | 0.372 | 0.385 | 0.41 | 1.02 | 0.873 | 1.04 | 0.891 | 0.71 | 1.02 | 0.934 | 0.925 | 1.06 | 0.879 | 0.741 | 0.682 | 0.656 | 0.603 | 0.49
3 | NCI-H1437 | 1.11 | 1.08 | 1.07 | 1.17 | 1.11 | 0.835 | 0.91 | 0.721 | 0.755 | 0.465 | 1.31 | 1.26 | 1.22 | 1.2 | 1.21 | 0.965 | 0.886 | 0.772 | 0.747 | 0.501
4 | NCI-H1651 | 0.485 | 0.487 | 0.476 | 0.457 | 0.466 | 0.939 | 0.908 | 0.763 | 0.768 | 0.34 | 0.91 | 0.814 | 0.696 | 0.519 | 0.416 | 0.528 | 0.528 | 0.572 | 0.548 | 0.59
5 | NCI-H1666 | 0.811 | 0.711 | 0.84 | 0.841 | 0.956 | 0.685 | 0.826 | 0.626 | 0.67 | 0.458 | 0.979 | 0.934 | 1.01 | 0.952 | 0.936 | 1.14 | 0.966 | 0.999 | 0.984 | 0.955
6 | NCI-H1734 | 0.558 | 0.619 | 0.52 | 0.576 | 0.269 | 1.12 | 1.02 | 1.05 | 0.986 | 0.812 | 0.961 | 0.809 | 0.831 | 0.751 | 0.485 | 0.891 | 0.9 | 0.838 | 0.753 | 0.607
7 | NCI-H1755 | 0.442 | 0.407 | 0.469 | 0.399 | 0.303 | 0.993 | 0.992 | 0.992 | 1.04 | 0.997 | 0.943 | 0.955 | 0.861 | 0.895 | 0.877 | 0.758 | 0.838 | 0.722 | 0.768 | 0.669
8 | NCI-H1793 | 0.461 | 0.593 | 0.508 | 0.394 | 0.549 | 0.775 | 0.832 | 0.707 | 0.811 | 0.589 | 0.814 | 0.74 | 0.538 | 0.67 | 0.429 | 0.898 | 0.672 | 0.664 | 0.846 | 0.497
9 | NCI-H1915 | 0.7 | 0.682 | 0.736 | 0.656 | 0.68 | 0.977 | 0.983 | 0.942 | 0.96 | 0.984 | 1.12 | 1.16 | 1.07 | 1.03 | 0.97 | 0.531 | 0.554 | 0.561 | 0.472 | 0.511
10 | NCI-H1944 | 0.524 | 0.446 | 0.544 | 0.669 | 0.381 | 0.709 | 0.835 | 0.852 | 0.825 | 0.675 | 0.865 | 0.89 | 0.853 | 0.899 | 0.561 | 0.565 | 0.536 | 0.519 | 0.477 | 0.513
11 | NCI-H1975 | 0.737 | 0.792 | 0.666 | 0.644 | 0.402 | 0.881 | 0.873 | 0.766 | 0.692 | 0.385 | 0.945 | 1.04 | 0.796 | 0.79 | 0.251 | 0.744 | 0.697 | 0.441 | 0.47 | 0.179
12 | NCI-H1993 | 0.733 | 0.421 | 0.787 | 1.11 | 0.586 | 0.792 | 0.86 | 0.862 | 0.789 | 0.823 | 0.911 | 0.749 | 0.727 | 0.772 | 0.734 | 1.1 | 0.852 | 0.809 | 0.0067 | 0.576
13 | NCI-H2085 | 0.996 | 1.02 | 0.947 | 0.992 | 0.932 | 0.769 | 0.762 | 0.695 | 0.778 | 0.649 | 0.935 | 0.937 | 0.974 | 1.22 | 0.59 | 0.817 | 0.805 | 0.759 | 0.815 | 0.748
14 | NCI-H2087 | 1.42 | 1.48 | 1.33 | 1.48 | 1.01 | 1.05 | 1.29 | 1.21 | 0.959 | 1.19 | 1.28 | 1.14 | 1.04 | 1.29 | 0.331 | 0.72 | 0.713 | 0.773 | 0.723 | 0.484
15 | NCI-H2126 | 1.02 | 0.976 | 1.01 | 0.889 | 0.995 | 0.798 | 0.732 | 0.773 | 0.743 | 0.683 | 1.28 | 1.19 | 1.16 | 1.17 | 0.947 | 0.903 | 0.762 | 0.784 | 0.74 | 0.562
16 | NCI-H2170 | 0.929 | 0.935 | 0.875 | 0.886 | 0.866 | 0.279 | 0.296 | 0.259 | 0.291 | 0.249 | 0.987 | 1 | 0.968 | 0.478 | 1.03 | 0.853 | 0.831 | 0.799 | 0.825 | 0.802
